Legend:
[1] = tested on: alternative splicing events of endogenous genes; test: RT-PCR analysis of global alternative splicing events in PBMC samples; type: cell-based, human
Source text: Quantification of non-viral RNA splicing is achieved using the protocols detailed in Klinck et al. (Multiple alternative splicing markers for ovarian cancer. Cancer Res. 68, 657-663 (2008)) and Venables et al. (Cancer-associated regulation of alternative splicing. Nat. Struct. Mol. Biol. 16, 670-676 (2009)).
These 382 alternative splicing events (ASEs) represent a high throughput random snapshot of global alterations of alternative splicing. High throughput PCR analysis of these (essentially random) 382 ASEs on multiple PBMC samples was performed, either from untreated (cells) or treated with DMSO, Compound 1 or with the control antiviral drug (Darunavir). Analysis of the data allowed further stringent quality controls; ASEs were only considered if >75% of the products ran at the expected mobilities (i.e. if the reactions were pure) and if total expected PCR concentration was higher than 20 nM (i.e. if the reactions were strong) which led to 264 remaining ASEs.

[2] = Lymphocyte populations in engrafted humanized mice treated for 30 days; type: in vivo; details: one month, 20 mg/kg or 40 mg/kg, compared to controls without treatment
Description: FIG. 7. Efficacy of Compound 1 to inhibit viral replication in humanized mice. A) Reconstituted SCID mice were infected with JRCSF HIV-1 strain by intraperitoneal injection. Control group received by gavage labrafil and 5% DMSO (n=15) and treated group 20 mg/kg b.i.d of Compound 1 in labrafil and 5% DMSO (n=14) for 15 days. Two independent experiments were performed with 5 and 10 reconstituted mice for each group. Viral load was assessed by measuring viral RNA using the Amplicor HIV-1 Monitor from Roche. B) FACS analysis was performed on peritoneal wash at day 15 post-treatment to assess the CD8/CD4 ratio. C) Engrafted NSG humanized mice were treated by oral gavage with Compound 1 at either 20 mg or 40 mg/kg once a day for 30 days and indicated lymphocyte populations (CD45+; CD4+ and CD8+) were monitored by FACS analysis. […] Viral load was assessed by measuring viral RNA using the Amplicor HIV-1 Monitor from Roche. […]
Briefly, newborn (<5 days old) NSG mice received sub-lethal (1 Gy) total body irradiation with a Cs source, and then received […] transduced or untransduced CD34+ human HSCs using a 50 μl Hamilton syringe via the intrahepatic (i.h.) route. […] Mice were monitored three times a week for symptoms or signs of adverse events, according to a standard score sheet. […]

FC(F)(F)Oc1ccc(Nc2ccc3cccc(Cl)c3n2)cc1 [Compound 1, 8-chloro-N-(4-(trifluoromethoxy)phenyl)quinolin-2-amine]
global effect on pre-mRNA splicing [1]: no global effect
engraftment values of CD45+ cells and ratio of CD8+/CD4+ [2]: neither alters engraftment values of CD45+ cells nor the ratio of CD8+/CD4+
